Assays:
mouse [1] = settings: Carcinogenicity, cd1, Oral, Feed, dose end: 18 month, group: systemic
mouse [2] = settings: Subchronic oral toxicity in rodents, cd1, Feed, dose end: 7 week
rat [3] = settings: Subchronic oral toxicity in rodents, other, Feed, dose end: 90 day
dog [4] = settings: Chronic toxicity, beagle, Oral, Feed, dose end: 52 week
rat [5] = settings: Combined chronic toxicity/carcinogenicity, sprague dawley, Oral, Feed, dose end: 24 month
dog [6] = settings: Subchronic oral toxicity in nonrodent, beagle, Feed, dose end: 103 day
rat [7] = settings: Prenatal developmental toxicity study, other, Oral, Gavage/Intubation, dose end: 16 GD, group: maternal
rabbit = settings: Prenatal developmental toxicity study, new zealand white, Oral, Gavage/Intubation, dose end: 19 GD, group: maternal
dog [8] = settings: Subchronic oral toxicity in nonrodent, beagle, Feed, dose end: 26 week
rat [9] = settings: Subchronic oral toxicity in rodents, Charles River Crl:CD BR, Feed, dose end: 6 week
rat [10] = settings: Developmental neurotoxicity study; long evans; Injection; Intraperitoneal; dose end: 80 PND; group: cannot be grouped; systemic / in life observation / body weight / offspring (pup) weight + systemic / in life observation / clinical signs / abnormal movements…
rat [11] = settings: Multigenerational reproductive toxicity study, wistar, Oral, Feed, dose end: 2 generation
rat [12] = settings: Multigenerational reproductive toxicity study, wistar, Oral, Feed, dose end: 2 generation; remark: listed apart in the source
rat [13] = settings: Developmental neurotoxicity study; sprague dawley; Oral; Gavage/Intubation; dose end: 125 PND; group: cannot be grouped; systemic / in life observation / body weight / offspring (pup) weight + systemic / in life observation / body weight / offspring (pup) …
[14] = systemic / in life observation / body weight / body weight gain + systemic / in life observation / clinical signs / fur (altered appearance…
[15] = group: cholinesterase, cholinesterase / cholinesterase / cholinesterase / plasma cholinesterase (che)
[16] = group: systemic, systemic / in life observation / body weight / body weight gain
[17] = group: systemic, systemic / in life observation / body weight / body weight gain + systemic / in life observation / mortality / mortality + systemic / in …
[18] = group: cholinesterase, cholinesterase / cholinesterase / cholinesterase / brain cholinesterase (che) + cholinesterase / cholinesterase / cholinesterase / …
[19] = group: systemic, systemic / in life observation / clinical signs / body surface staining + systemic / in life observation / clinical signs / hunched posture…
[20] = group: cholinesterase, cholinesterase / cholinesterase / cholinesterase / erythrocyte cholinesterase (che) + cholinesterase / cholinesterase / cholinesterase / …
[21] = group: systemic, systemic / clinical chemistry / albumin / albumin + systemic / clinical chemistry / alkaline phosphatase (alp/alk) / alkaline phosphatase (…
[22] = group: cholinesterase, cholinesterase / cholinesterase / cholinesterase / erythrocyte cholinesterase (che)
[23] = group: systemic, systemic / clinical chemistry / sodium / sodium
[24] = group: cholinesterase, cholinesterase / cholinesterase / cholinesterase / brain (regional) cholinesterase (che) + cholinesterase / cholinesterase / cholinesterase…
[25] = group: systemic, systemic / clinical chemistry / albumin / albumin + systemic / clinical chemistry / calcium / calcium + systemic / clinical chemistry / …
[26] = systemic / in life observation / body weight / body weight gain + systemic / in life observation / mortality / mortality + reproductive / …
[27] = systemic / in life observation / body weight / body weight gain + systemic / in life observation / mortality / mortality + systemic / in …
[28] = reproductive / reproductive performance / resorptions / resorptions + systemic / in life observation / body weight / body weight gain + …
[29] = group: systemic, systemic / in life observation / clinical signs / defecation (diarrhea)
[30] = group: systemic, systemic / in life observation / clinical signs / defecation (diarrhea) + systemic / in life observation / clinical signs / distended …
[31] = group: cholinesterase, cholinesterase / cholinesterase / cholinesterase / brain cholinesterase (che)
[32] = group: cholinesterase, cholinesterase / cholinesterase / cholinesterase / brain cholinesterase (che) + cholinesterase / cholinesterase / cholinesterase / plasma …
[33] = group: systemic, systemic / in life observation / body weight / body weight gain + systemic / in life observation / body weight / body weight
[34] = group: offspring, systemic / in life observation / body weight / offspring (pup) weight
[35] = group: parental, systemic / organ weight / epididymis / absolute + systemic / organ weight / testes / absolute
[36] = group: offspring, developmental / developmental landmark / anogenital distance (agd) / anogenital distance (agd) + developmental / developmental landmark / …
[37] = group: parental, systemic / in life observation / body weight / body weight gain + systemic / in life observation / body weight / body weight + systemic / …
[38] = group: reproductive, reproductive / offspring survival early / birth index / live birth index + reproductive / reproductive performance / estrous cycle / …

Compound: CCOP(=S)(OCC)OC(Cl)C(Cl)(Cl)Cl (stereo unspecified) [Chlorethoxyfos]
- LOAEL (mouse [1]; [14]): 14.9 mg/kg/day
- NEL (mouse [1]; [14]): 0.337 mg/kg/day
- NOAEL (mouse [1]; [14]): 3.25 mg/kg/day
- LEL (mouse [1]; systemic / pathology gross / skin / discolored): 3.25 mg/kg/day
- LEL (mouse [2]; [15]): 0.15 mg/kg/day
- LOAEL (mouse [2]; [15]): 0.15 mg/kg/day
- NEL (mouse [2]; [15]): 0.015 mg/kg/day
- NOAEL (mouse [2]; [15]): 0.015 mg/kg/day
- LOAEL (mouse [2]; [16]): 11.2 mg/kg/day
- LEL (mouse [2]; group: systemic, systemic / in life observation / body weight / body weight gain + systemic / in life observation / body weight / body weight + systemic / in…): 11.2 mg/kg/day
- NEL (mouse [2]; [17]): 0.15 mg/kg/day
- NOAEL (mouse [2]; [17]): 0.15 mg/kg/day
- LEL (rat [3]; [18]): 0.635 mg/kg/day
- LOAEL (rat [3]; [18]): > 1.64 mg/kg/day
- NEL (rat [3]; [18]): 0.08 mg/kg/day
- NOAEL (rat [3]; [18]): ≥ 1.64 mg/kg/day
- LEL (rat [3]; [19]): 1.23 mg/kg/day
- LOAEL (rat [3]; [19]): 1.23 mg/kg/day
- NEL (rat [3]; [19]): 0.635 mg/kg/day
- NOAEL (rat [3]; [19]): 0.635 mg/kg/day
- LEL (dog [4]; [20]): 0.591 mg/kg/day
- LOAEL (dog [4]; [20]): 0.591 mg/kg/day
- NEL (dog [4]; [20]): 0.065 mg/kg/day
- NOAEL (dog [4]; [20]): 0.065 mg/kg/day
- LOAEL (dog [4]; group: systemic, systemic / clinical chemistry / albumin / albumin): 1.86 mg/kg/day
- NEL (dog [4]; [21]): 0.065 mg/kg/day
- NOAEL (dog [4]; [21]): 0.591 mg/kg/day
- LEL (dog [4]; group: systemic, systemic / clinical chemistry / calcium / calcium): 0.591 mg/kg/day
- LEL (rat [5]; [22]): 0.311 mg/kg/day
- LOAEL (rat [5]; [22]): 0.311 mg/kg/day
- NEL (rat [5]; [22]): 0.154 mg/kg/day
- NOAEL (rat [5]; [22]): 0.154 mg/kg/day
- LEL (rat [5]; [23]): 0.416 mg/kg/day
- LOAEL (rat [5]; [23]): > 0.416 mg/kg/day
- NEL (rat [5]; [23]): 0.208 mg/kg/day
- NOAEL (rat [5]; [23]): ≥ 0.416 mg/kg/day
- LEL (dog [6]; [24]): 0.125 mg/kg/day
- LOAEL (dog [6]; [24]): 0.125 mg/kg/day
- NEL (dog [6]; [24]): 0.0125 mg/kg/day
- NOAEL (dog [6]; [24]): 0.0125 mg/kg/day
- LEL (dog [6]; [25]): 1.25 mg/kg/day
- LOAEL (dog [6]; [25]): > 1.25 mg/kg/day
- NEL (dog [6]; [25]): 0.125 mg/kg/day
- NOAEL (dog [6]; [25]): ≥ 1.25 mg/kg/day
- LEL (rat [7]; [26]): 0.5 mg/kg/day
- LOAEL (rat [7]; [26]): 0.5 mg/kg/day
- NEL (rat [7]; [27]): 0.25 mg/kg/day
- NOAEL (rat [7]; [27]): 0.25 mg/kg/day
- LOAEL (rabbit; reproductive / reproductive performance / resorptions / resorptions): 3.1 mg/kg/day
- LEL (rabbit; [28]): 3.1 mg/kg/day
- NEL (rabbit; [28]): 1.38 mg/kg/day
- NOAEL (rabbit; [28]): 1.38 mg/kg/day
- LEL (dog [8]; [15]): 0.061 mg/kg/day
- LOAEL (dog [8]; [15]): 0.578 mg/kg/day
- NEL (dog [8]; [15]): < 0.061 mg/kg/day
- NOAEL (dog [8]; group: cholinesterase, cholinesterase / cholinesterase / cholinesterase / plasma cholinesterase (che) + cholinesterase / cholinesterase / cholinesterase / brain (…): 0.061 mg/kg/day
- LEL (dog [8]; [29]): 0.578 mg/kg/day
- LOAEL (dog [8]; [29]): 0.578 mg/kg/day
- NEL (dog [8]; [30]): 0.061 mg/kg/day
- NOAEL (dog [8]; [30]): 0.061 mg/kg/day
- LEL (rat [9]; [31]): 0.66 mg/kg/day
- LOAEL (rat [9]; [31]): 0.66 mg/kg/day
- NEL (rat [9]; [32]): 0.132 mg/kg/day
- NOAEL (rat [9]; [32]): 0.132 mg/kg/day
- LOAEL (rat [9]; [16]): 0.958 mg/kg/day
- LEL (rat [9]; [33]): 0.958 mg/kg/day
- NEL (rat [9]; [33]): 0.477 mg/kg/day
- NOAEL (rat [9]; [33]): 0.477 mg/kg/day

Compound: N#CCCNCCC#N [3,3'-Iminobispropanenitrile]
- LEL (rat [10]): 300 mg/kg/day
- LOAEL (rat [10]): > 300 mg/kg/day
- NEL (rat [10]): 150 mg/kg/day
- NOAEL (rat [10]): ≥ 300 mg/kg/day

Compound: CCC[CH2][Sn]([Cl])([CH2]CCC)[CH2]CCC [Tributyltin chloride]
- LEL (rat [11]; [34]): 0.25 mg/kg/day
- LOAEL (rat [11]; [34]): 0.25 mg/kg/day
- NEL (rat [11]; [34]): < 0.25 mg/kg/day
- NOAEL (rat [11]; [34]): < 0.25 mg/kg/day
- LEL (rat [11]; [35]): 0.25 mg/kg/day
- LOAEL (rat [11]; [35]): 0.25 mg/kg/day
- NEL (rat [11]; [35]): < 0.25 mg/kg/day
- NOAEL (rat [11]; [35]): < 0.25 mg/kg/day
- LEL (rat [12]; group: offspring, developmental / developmental landmark / anogenital distance (agd) / anogenital distance (agd)): 1.25 mg/kg/day
- LOAEL (rat [12]; [36]): > 6.25 mg/kg/day
- NEL (rat [12]; [36]): 0.25 mg/kg/day
- NOAEL (rat [12]; [36]): ≥ 6.25 mg/kg/day
- NEL (rat [12]; group: parental, systemic / in life observation / body weight / body weight gain): 1.25 mg/kg/day
- LEL (rat [12]; [37]): 6.25 mg/kg/day
- LOAEL (rat [12]; [37]): > 6.25 mg/kg/day
- NOAEL (rat [12]; [37]): ≥ 6.25 mg/kg/day
- LEL (rat [12]; [38]): 6.25 mg/kg/day
- LOAEL (rat [12]; [38]): > 6.25 mg/kg/day
- NEL (rat [12]; [38]): 1.25 mg/kg/day
- NOAEL (rat [12]; [38]): ≥ 6.25 mg/kg/day
- LEL (rat [13]): 5 mg/kg/day
- LOAEL (rat [13]): > 5 mg/kg/day
- NEL (rat [13]): 1 mg/kg/day
- NOAEL (rat [13]): ≥ 5 mg/kg/day
